In patent US10392368B2, “Pyrazolo and triazolo bicyclic compounds as JAK kinase inhibitors” (THERAVANCE BIOPHARMA R&D IP, LLC, priority 2017, dated 2019):
Like-named read-outs stand apart in the source and are kept apart here.

Experiments:
JAK1 = biological target: T1, JAK1 (Homo sapiens, UniProt P23458); experiment: Biochemical JAK1 kinase assay (LanthaScreen); conditions: for Ki: read-out: JAK 1 (pKi) (converted)
T1 construct: GST; purchased Life Technologies
Summary of the method: (§1)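 GST-tagged JAK enzyme and GFP-STAT1 peptide preincubated with compound 1 h, then ATP added; 1 h kinase reaction at ambient temperature, pH 7.5 HEPES/MgCl2 buffer, 1% DMSO. Tb-anti-pSTAT1 (pTyr701) TR-FRET, 520/495 nm ratio; IC50 from 4-parameter fit, converted to pKi via Cheng-Prusoff.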

JAK2 = biological target: T2, JAK2 (Homo sapiens, UniProt O60674); experiment: Biochemical JAK2 kinase assay (LanthaScreen); conditions: for Ki: read-out: JAK 2 (pKi) (converted)
T2 construct: GST; purchased Life Technologies
T2 sequence (O60674 whole entry): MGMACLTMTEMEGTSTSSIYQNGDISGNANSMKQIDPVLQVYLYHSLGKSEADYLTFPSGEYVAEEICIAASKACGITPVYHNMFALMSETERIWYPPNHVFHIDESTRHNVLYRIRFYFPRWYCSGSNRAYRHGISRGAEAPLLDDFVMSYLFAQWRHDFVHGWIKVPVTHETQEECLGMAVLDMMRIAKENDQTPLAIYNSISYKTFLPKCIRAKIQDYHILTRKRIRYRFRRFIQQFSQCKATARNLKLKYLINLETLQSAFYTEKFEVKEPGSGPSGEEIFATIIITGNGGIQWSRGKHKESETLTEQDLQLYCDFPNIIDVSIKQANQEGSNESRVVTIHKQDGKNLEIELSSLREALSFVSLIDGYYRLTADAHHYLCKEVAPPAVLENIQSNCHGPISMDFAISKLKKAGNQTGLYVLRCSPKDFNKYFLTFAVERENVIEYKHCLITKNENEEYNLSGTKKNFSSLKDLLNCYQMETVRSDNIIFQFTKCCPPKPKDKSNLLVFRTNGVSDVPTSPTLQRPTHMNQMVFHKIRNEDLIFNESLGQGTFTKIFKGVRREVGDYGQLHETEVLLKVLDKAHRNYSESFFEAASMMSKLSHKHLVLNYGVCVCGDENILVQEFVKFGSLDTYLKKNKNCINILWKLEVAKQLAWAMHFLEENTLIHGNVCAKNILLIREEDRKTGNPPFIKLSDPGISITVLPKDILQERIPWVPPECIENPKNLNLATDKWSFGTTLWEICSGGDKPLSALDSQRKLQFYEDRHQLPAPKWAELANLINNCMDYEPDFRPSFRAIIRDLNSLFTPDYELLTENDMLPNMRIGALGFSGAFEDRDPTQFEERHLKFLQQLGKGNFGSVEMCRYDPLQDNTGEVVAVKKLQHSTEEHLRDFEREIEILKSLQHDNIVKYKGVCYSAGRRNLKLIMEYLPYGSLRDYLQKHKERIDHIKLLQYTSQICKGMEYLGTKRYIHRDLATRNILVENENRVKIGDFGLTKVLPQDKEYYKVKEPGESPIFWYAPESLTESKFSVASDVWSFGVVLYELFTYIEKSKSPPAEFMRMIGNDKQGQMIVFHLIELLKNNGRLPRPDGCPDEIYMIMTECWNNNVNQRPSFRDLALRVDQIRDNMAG
Summary of the method: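 pKi values derive from pIC50 via Cheng-Prusoff, with IC50 from a 4-parameter fit of percent-inhibition TR-FRET data using Tb-anti-pSTAT1 (pTyr701) detection. Compound, GST-JAK2 and GFP-STAT1 substrate were pre-incubated 1 h, then ATP started a 1 h ambient reaction (HEPES pH 7.5, 10 mM MgCl2, 1% DMSO).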

Tyk2 = biological target: T3, Tyk2 (Homo sapiens, UniProt P29597); experiment: Biochemical Tyk2 kinase assay (LanthaScreen); conditions: for Ki: read-out: Tyk 2 (pKi) (converted)
T3 construct: GST; purchased Life Technologies
T3 sequence (P29597 whole entry): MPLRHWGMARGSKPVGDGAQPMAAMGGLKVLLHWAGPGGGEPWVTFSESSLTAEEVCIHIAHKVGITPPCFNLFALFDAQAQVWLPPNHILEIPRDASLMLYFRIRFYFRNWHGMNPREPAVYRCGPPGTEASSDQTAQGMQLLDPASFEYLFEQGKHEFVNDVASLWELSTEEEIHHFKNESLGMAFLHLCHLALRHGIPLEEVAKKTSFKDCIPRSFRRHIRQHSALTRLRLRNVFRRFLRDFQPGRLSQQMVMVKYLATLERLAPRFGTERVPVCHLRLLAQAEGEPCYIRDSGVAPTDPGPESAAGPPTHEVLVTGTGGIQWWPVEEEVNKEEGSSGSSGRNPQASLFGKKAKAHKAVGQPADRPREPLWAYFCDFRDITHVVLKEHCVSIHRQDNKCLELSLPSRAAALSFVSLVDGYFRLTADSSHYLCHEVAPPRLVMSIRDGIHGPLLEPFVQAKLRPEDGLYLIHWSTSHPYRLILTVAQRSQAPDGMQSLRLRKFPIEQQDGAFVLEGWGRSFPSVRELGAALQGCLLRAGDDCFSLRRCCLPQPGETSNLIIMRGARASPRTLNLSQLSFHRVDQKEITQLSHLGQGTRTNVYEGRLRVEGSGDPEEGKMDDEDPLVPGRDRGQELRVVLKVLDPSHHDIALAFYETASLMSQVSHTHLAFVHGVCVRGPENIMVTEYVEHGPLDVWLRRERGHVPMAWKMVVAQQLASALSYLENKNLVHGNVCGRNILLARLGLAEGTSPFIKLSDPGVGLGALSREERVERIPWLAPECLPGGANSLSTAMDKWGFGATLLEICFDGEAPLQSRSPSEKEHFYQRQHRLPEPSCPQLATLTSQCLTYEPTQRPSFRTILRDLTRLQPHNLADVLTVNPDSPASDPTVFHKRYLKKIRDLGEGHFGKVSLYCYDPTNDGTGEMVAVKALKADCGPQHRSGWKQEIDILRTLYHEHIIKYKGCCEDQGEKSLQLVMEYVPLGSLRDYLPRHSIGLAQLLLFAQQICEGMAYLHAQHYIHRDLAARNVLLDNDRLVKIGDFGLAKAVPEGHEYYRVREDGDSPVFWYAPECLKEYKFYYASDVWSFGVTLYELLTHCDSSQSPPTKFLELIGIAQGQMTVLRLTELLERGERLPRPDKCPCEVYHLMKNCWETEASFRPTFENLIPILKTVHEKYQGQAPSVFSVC
Summary of the method: as §1

[1] = tested on: IL-2 stimulated pSTAT5 in Tall-1 T cells; experiment: Cellular JAK3 potency assay: inhibition of IL-2 stimulated pSTAT5 in Tall-1 T cells; type: cell-based, human; conditions: for IC50: Homo sapiens, read-out: Tall-1 (pIC50) (converted)
Summary of the method: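 Inhibition of IL-2-induced pSTAT5 was quantified by AlphaLisa in Tall-1 cell lysates. Compound exposure lasted 1 h before 30 min stimulation with 300 ng/ml IL-2 final.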

JAK3 = biological target: T4, JAK3 (Homo sapiens, UniProt P52333); experiment: Biochemical JAK3 kinase assay (LanthaScreen); design: GST; purchased Life Technologies; conditions: for Ki: read-out: JAK 3 (pKi) (converted); for JAK3 (pKi)-JAK1 (pKi): selectivity: difference of pKi JAK3 and pKi JAK1
T4 sequence (P52333 1-1124): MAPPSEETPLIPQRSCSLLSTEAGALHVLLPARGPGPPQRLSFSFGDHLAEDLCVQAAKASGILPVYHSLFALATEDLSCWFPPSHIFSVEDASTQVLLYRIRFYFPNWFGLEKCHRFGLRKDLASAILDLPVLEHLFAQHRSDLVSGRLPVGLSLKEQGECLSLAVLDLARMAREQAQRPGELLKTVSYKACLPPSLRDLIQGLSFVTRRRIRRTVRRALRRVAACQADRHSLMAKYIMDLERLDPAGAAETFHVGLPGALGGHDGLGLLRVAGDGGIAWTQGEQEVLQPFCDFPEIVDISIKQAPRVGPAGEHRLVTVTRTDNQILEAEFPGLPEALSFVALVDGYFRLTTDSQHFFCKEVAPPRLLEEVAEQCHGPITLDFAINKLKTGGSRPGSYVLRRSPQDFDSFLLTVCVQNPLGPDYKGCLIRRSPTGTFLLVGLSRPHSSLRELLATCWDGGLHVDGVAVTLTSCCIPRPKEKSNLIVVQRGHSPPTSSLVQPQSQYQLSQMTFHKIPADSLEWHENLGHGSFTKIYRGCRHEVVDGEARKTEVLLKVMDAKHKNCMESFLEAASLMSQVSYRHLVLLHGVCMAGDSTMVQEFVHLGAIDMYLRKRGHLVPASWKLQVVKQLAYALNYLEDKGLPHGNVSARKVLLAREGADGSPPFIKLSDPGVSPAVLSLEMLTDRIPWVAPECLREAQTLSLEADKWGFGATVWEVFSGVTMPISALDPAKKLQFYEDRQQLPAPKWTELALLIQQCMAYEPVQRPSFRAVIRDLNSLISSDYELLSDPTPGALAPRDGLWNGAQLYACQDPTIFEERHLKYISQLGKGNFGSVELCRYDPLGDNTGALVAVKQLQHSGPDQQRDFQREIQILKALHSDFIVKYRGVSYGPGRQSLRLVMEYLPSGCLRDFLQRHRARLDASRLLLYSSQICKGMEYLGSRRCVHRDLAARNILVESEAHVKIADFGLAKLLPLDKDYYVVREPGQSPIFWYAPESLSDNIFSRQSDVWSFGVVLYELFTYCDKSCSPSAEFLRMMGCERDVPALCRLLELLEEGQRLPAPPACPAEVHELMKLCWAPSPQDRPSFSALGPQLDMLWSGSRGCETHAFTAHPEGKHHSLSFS
Summary of the method: as §1

[2] = TALL-1, IL-2 stimulated pSTAT5 in Tall-1 T cells
[3] = IL-2 stimulated pSTAT5 in Tall-1 T cells

T1 sequence (P23458 whole entry): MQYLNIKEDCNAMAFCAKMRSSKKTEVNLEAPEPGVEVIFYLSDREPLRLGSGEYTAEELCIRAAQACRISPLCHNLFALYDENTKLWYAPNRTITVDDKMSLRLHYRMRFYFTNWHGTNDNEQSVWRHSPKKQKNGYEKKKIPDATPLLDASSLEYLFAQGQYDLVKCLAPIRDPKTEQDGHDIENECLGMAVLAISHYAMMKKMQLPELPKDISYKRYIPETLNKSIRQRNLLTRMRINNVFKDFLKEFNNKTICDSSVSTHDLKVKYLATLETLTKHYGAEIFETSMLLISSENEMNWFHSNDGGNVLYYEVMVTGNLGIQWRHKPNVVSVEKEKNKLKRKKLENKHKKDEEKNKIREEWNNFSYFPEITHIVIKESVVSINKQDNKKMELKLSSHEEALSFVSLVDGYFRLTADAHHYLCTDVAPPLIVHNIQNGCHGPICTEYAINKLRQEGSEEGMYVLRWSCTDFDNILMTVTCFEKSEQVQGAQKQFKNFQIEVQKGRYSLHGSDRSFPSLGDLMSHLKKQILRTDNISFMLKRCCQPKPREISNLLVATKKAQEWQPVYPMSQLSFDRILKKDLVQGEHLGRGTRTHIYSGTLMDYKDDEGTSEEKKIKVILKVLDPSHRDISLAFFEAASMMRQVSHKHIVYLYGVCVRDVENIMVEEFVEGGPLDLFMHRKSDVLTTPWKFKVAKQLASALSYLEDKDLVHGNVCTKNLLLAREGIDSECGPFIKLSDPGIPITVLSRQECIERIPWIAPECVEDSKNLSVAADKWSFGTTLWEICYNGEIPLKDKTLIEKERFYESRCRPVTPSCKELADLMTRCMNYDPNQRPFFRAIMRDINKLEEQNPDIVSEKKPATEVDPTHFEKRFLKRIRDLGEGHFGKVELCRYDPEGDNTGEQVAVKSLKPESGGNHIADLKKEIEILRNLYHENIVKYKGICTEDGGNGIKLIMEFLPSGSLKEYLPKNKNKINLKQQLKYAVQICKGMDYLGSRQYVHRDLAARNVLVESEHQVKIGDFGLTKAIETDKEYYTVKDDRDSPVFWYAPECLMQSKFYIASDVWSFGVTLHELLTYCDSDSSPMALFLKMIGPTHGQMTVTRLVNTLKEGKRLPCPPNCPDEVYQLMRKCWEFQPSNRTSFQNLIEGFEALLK

| Structure (SMILES) | Ki (JAK1) [nM] | Ki (JAK2) [nM] | Ki (Tyk2) [nM] | IC50 [1, 2] [nM] | Ki (JAK3) [nM] | JAK3 (pKi)-JAK1 (pKi) (JAK3) | JAK 1 (pKi) (JAK1) | JAK 2 (pKi) (JAK2) | Tyk 2 (pKi) (Tyk2) | Tall-1 (pIC50) [1, 3] | JAK 3 (pKi) (JAK3) | IC50 [1, 3] [nM] |
| --- | --- | --- | --- | --- | --- | --- | --- | --- | --- | --- | --- | --- |
| CN(C)C/C=C/C(=O)N1CC(COc2cc(-c3ccc(O)c(Cl)c3)cc3[nH]ncc23)C1 [Compound 3-2] | > 100 | > 100 | > 100 | 31.6 to 200 | 0.1 to 1 | A (a value of 3 or above) |  |  |  |  |  |  |
| C=CC(=O)N1CC(COc2cc(-c3ccc(O)c(Cl)c3)cc3[nH]ncc23)C1 [Compound 3-3] | > 100 | > 100 | > 100 | < 31.6 | 0.1 to 1 | A (a value of 3 or above) |  |  |  |  |  |  |
| C=CC(=O)N1CC(COc2cc(-c3ccc(O)c(F)c3)cc3[nH]ncc23)C1 [Compound 3-4] | > 100 | 10 to 100 | > 100 | < 31.6 | 0.1 to 1 | A (a value of 3 or above) |  |  |  |  |  |  |
| CN(C)C/C=C/C(=O)N1CC(F)(COc2cc(-c3ccc(O)cc3)cc3[nH]ncc23)C1 [Compound 3-5] |  |  |  |  |  | B (a value of 2.3 to 3) | D (a pKi value between 7 and 8 (Ki between 100 nM and 10 nM)) | D (a pKi value between 7 and 8 (Ki between 100 nM and 10 nM)) | E (a pKi value of 7 or below (Ki of 100 nM or above)) | A (a pIC50 value≥7.5 (IC50≤32 nM)) | B (a pKi value between 9 and 10 (Ki between 1 nM and 0.1 nM)) |  |
| CN(C)C/C=C/C(=O)N1CC(C)(COc2cc(-c3ccc(O)cc3)cc3[nH]ncc23)C1 [Compound 3-7] | > 100 | 10 to 100 | > 100 | 31.6 to 200 | < 0.1 | A (a value of 3 or above) |  |  |  |  |  |  |
| C=CC(=O)N1CC(C)(COc2cc(-c3ccc(O)cc3)cc3[nH]ncc23)C1 [Compound 3-8] |  |  |  |  |  | A (a value of 3 or above) | E (a pKi value of 7 or below (Ki of 100 nM or above)) | E (a pKi value of 7 or below (Ki of 100 nM or above)) | E (a pKi value of 7 or below (Ki of 100 nM or above)) | A (a pIC50 value≥7.5 (IC50≤32 nM)) | B (a pKi value between 9 and 10 (Ki between 1 nM and 0.1 nM)) |  |
| CCC1(COc2cc(-c3ccc(O)cc3)cc3[nH]ncc23)CN(C(=O)/C=C/CN(C)C)C1 [Compound 3-13] |  |  |  |  |  | A (a value of 3 or above) | E (a pKi value of 7 or below (Ki of 100 nM or above)) | D (a pKi value between 7 and 8 (Ki between 100 nM and 10 nM)) | E (a pKi value of 7 or below (Ki of 100 nM or above)) | A (a pIC50 value≥7.5 (IC50≤32 nM)) | B (a pKi value between 9 and 10 (Ki between 1 nM and 0.1 nM)) |  |
| CCC1(COc2cc(-c3ccc(O)c(Cl)c3)cc3[nH]ncc23)CN(C(=O)/C=C/CN(C)C)C1 [Compound 3-15] | > 100 | > 100 | > 100 | 31.6 to 200 | < 0.1 | A (a value of 3 or above) |  |  |  |  |  |  |
| CCC1(COc2cc(-c3ccc(O)c(F)c3)cc3[nH]ncc23)CN(C(=O)/C=C/CN(C)C)C1 [Compound 3-17] |  |  |  |  |  | A (a value of 3 or above) | E (a pKi value of 7 or below (Ki of 100 nM or above)) | D (a pKi value between 7 and 8 (Ki between 100 nM and 10 nM)) | E (a pKi value of 7 or below (Ki of 100 nM or above)) | A (a pIC50 value≥7.5 (IC50≤32 nM)) | A (a pKi value≥10 (Ki≤0.1 nM)) |  |
| CN(C)C/C=C/C(=O)N1CC(C#N)(COc2cc(-c3ccc(O)cc3)cc3[nH]ncc23)C1 [Compound 3-19] |  |  |  |  |  | A (a value of 3 or above) | E (a pKi value of 7 or below (Ki of 100 nM or above)) | E (a pKi value of 7 or below (Ki of 100 nM or above)) | E (a pKi value of 7 or below (Ki of 100 nM or above)) | B (a pIC50 value between 6.7 (included) and 7.5 (IC50 between 200 nM and 32 nM)) | B (a pKi value between 9 and 10 (Ki between 1 nM and 0.1 nM)) |  |
| C=CC(=O)N1CC(C#N)(COc2cc(-c3ccc(O)cc3)cc3[nH]ncc23)C1 [Compound 3-20] |  |  |  |  |  | B (a value of 2.3 to 3) | E (a pKi value of 7 or below (Ki of 100 nM or above)) | D (a pKi value between 7 and 8 (Ki between 100 nM and 10 nM)) | E (a pKi value of 7 or below (Ki of 100 nM or above)) | B (a pIC50 value between 6.7 (included) and 7.5 (IC50 between 200 nM and 32 nM)) | B (a pKi value between 9 and 10 (Ki between 1 nM and 0.1 nM)) |  |
| CN(C)C/C=C/C(=O)N1CC(C#N)(COc2cc(-c3ccc(O)c(Cl)c3)cc3[nH]ncc23)C1 [Compound 3-21] | > 100 | > 100 | > 100 | < 31.6 | 0.1 to 1 | A (a value of 3 or above) |  |  |  |  |  |  |
| C=CC(=O)N1CC(C#N)(COc2cc(-c3ccc(O)c(Cl)c3)cc3[nH]ncc23)C1 [Compound 3-22] | > 100 | > 100 | > 100 |  | < 0.1 | A (a value of 3 or above) |  |  |  |  |  | 31.6 to 200 |
| C=CC(=O)N1CC(C#N)(COc2cc(-c3ccc(O)c(F)c3)cc3[nH]ncc23)C1 [Compound 3-23] |  |  |  |  |  | A (a value of 3 or above) | E (a pKi value of 7 or below (Ki of 100 nM or above)) | D (a pKi value between 7 and 8 (Ki between 100 nM and 10 nM)) | E (a pKi value of 7 or below (Ki of 100 nM or above)) | B (a pIC50 value between 6.7 (included) and 7.5 (IC50 between 200 nM and 32 nM)) | A (a pKi value≥10 (Ki≤0.1 nM)) |  |
| CN(C)C/C=C/C(=O)N1CC(C(C)(C)Oc2cc(-c3ccc(O)cc3)cc3[nH]ncc23)C1 [Compound 3-24] |  |  |  |  |  | A (a value of 3 or above) | E (a pKi value of 7 or below (Ki of 100 nM or above)) | E (a pKi value of 7 or below (Ki of 100 nM or above)) | E (a pKi value of 7 or below (Ki of 100 nM or above)) | B (a pIC50 value between 6.7 (included) and 7.5 (IC50 between 200 nM and 32 nM)) | B (a pKi value between 9 and 10 (Ki between 1 nM and 0.1 nM)) |  |
| CN(C)C/C=C/C(=O)N1CC(C(C)(C)Oc2cc(-c3ccc(O)c(F)c3)cc3[nH]ncc23)C1 [Compound 3-27] | > 100 | > 100 | > 100 | 31.6 to 200 | < 0.1 | A (a value of 3 or above) |  |  |  |  |  |  |
| CC1C(COc2cc(-c3ccc(O)cc3)cc3[nH]ncc23)CN1C(=O)/C=C/CN(C)C (stereo not drawn) [Compound 3-30] |  |  |  |  |  | A (a value of 3 or above) | E (a pKi value of 7 or below (Ki of 100 nM or above)) | D (a pKi value between 7 and 8 (Ki between 100 nM and 10 nM)) | E (a pKi value of 7 or below (Ki of 100 nM or above)) | B (a pIC50 value between 6.7 (included) and 7.5 (IC50 between 200 nM and 32 nM)) | A (a pKi value≥10 (Ki≤0.1 nM)) |  |
